In this experiment the test system is PAKT/PKB (p-(S473) AKT) in H209 small cell lung carcinoma cells stimulated with Stem Cell Factor. Nature of the experiment: PAKT/PKB Cytoblot Assay with H209 cells (SCF-stimulated p-(S473) AKT). The format is cell-based. Particulars: Homo sapiens, NCI-H209, compound 1 hour, SCF 25 ng/mL 5 minutes. Put shortly: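 H209 SCLC cells kept overnight in RPMI with 0.1% BSA were pretreated 1 h at 37 °C with compound (0.01–10 μM final), then stimulated with SCF 25 ng/mL for 5 min. After formaldehyde/methanol fixation, p-(S473) AKT was detected in-cell with HRP secondary and ECL chemiluminescence, and IC50 was derived.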

Setting [1] is: group: between 500 nM and 1 μM (units in value).

Structures are written as SMILES. Counter-ions that a name gives are not always drawn.

For orientation: IC50 means the concentration at which inhibition is half-maximal. A lower IC50 goes with greater potency. As to `CCN(CCNC(=O)c1cc(CNc2ccccc2C(=O)Nc2ccc3c(c2)OC(F)(F)O3)ccn1)c1cccc(C)c1` [Example 106, 4-{[(2-{[(2,2-difluoro-1,3-benzodioxol-5-yl)amino]carbonyl}phenyl)amino]methyl}-N-{2-[ethyl(3-methylphenyl)amino]ethyl}pyridine-2-carboxamide], for the setting “group: between 1 and 3 μM”, the IC50 fell in the range of 1000 to 3000 nM.
For the compound `CN(CCCNC(=O)c1cc(CNc2ccccc2C(=O)Nc2ccc3c(c2)OC(F)(F)O3)ccn1)c1ccccc1` [Example 107, 4-{[(2-{[(2,2-difluoro-1,3-benzodioxol-5-yl)amino]carbonyl}phenyl)amino]methyl}-N-{3-[methyl(phenyl)amino]propyl}pyridine-2-carboxamide], the IC50 (group: between 1 and 3 μM) was in the range of 1000 to 3000 nM.
Consider `CCN(CC)CCCC(C)NC(=O)c1cc(CNc2ccccc2C(=O)Nc2ccc3c(c2)OC(F)(F)O3)ccn1` (stereo not drawn) [Example 108, N-[4-(diethylamino)-1-methylbutyl]-4-{[(2-{[(2,2-difluoro-1,3-benzodioxol-5-yl)amino]carbonyl}phenyl)amino]methyl}pyridine-2-carboxamide], for which, under setting [1], the IC50 lay within 500 to 1000 nM.
As to `CC(C)C[C@H](CO)NC(=O)c1cc(CNc2ccccc2C(=O)Nc2ccc3c(c2)OC(F)(F)O3)ccn1` [Example 109, 4-{[(2-{[(2,2-difluoro-1,3-benzodioxol-5-yl)amino]carbonyl}phenyl)amino]methyl}-N-[1-(hydroxymethyl)-3-methylbutyl]pyridine-2-carboxamide], the IC50 (group: between 1 and 3 μM) lay within 1000 to 3000 nM.
`CCOCCCNC(=O)c1cc(CNc2ccccc2C(=O)Nc2ccc3c(c2)OC(F)(F)O3)ccn1` [Example 110, 4-{[(2-{[(2,2-difluoro-1,3-benzodioxol-5-yl)amino]carbonyl}phenyl)amino]methyl}-N-(3-ethoxypropyl)pyridine-2-carboxamide] gave an IC50 (group: less than 500 nM) of less than 500 nM.
With `CC(C)OCCCNC(=O)c1cc(CNc2ccccc2C(=O)Nc2ccc3c(c2)OC(F)(F)O3)ccn1` [Example 111, 4-{[(2-{[(2,2-difluoro-1,3-benzodioxol-5-yl)amino]carbonyl}phenyl)amino]methyl}-N-(3-isopropoxypropyl)pyridine-2-carboxamide], the half-maximal inhibitory concentration (IC50) (group: less than 500 nM) was less than 500 nM.
As to `CCCCOCCCNC(=O)c1cc(CNc2ccccc2C(=O)Nc2ccc3c(c2)OC(F)(F)O3)ccn1` [Example 112, N-(3-butoxypropyl)-4-{[(2-{[(2,2difluoro-1,3-benzodioxol-5-yl)amino]carbonyl}phenyl)amino]methyl}pyridine-2-carboxamide], the IC50 under setting [1] was 500 to 1000 nM.
For the setting “group: less than 500 nM”, `O=C(NCCCN1CCCCCC1)c1cc(CNc2ccccc2C(=O)Nc2ccc3c(c2)OC(F)(F)O3)ccn1` [Example 113, N-(3-azepan-1-ylpropyl)-4-{[(2-{[(2,2-difluoro-1,3-benzodioxol-5-yl)amino]carbonyl}phenyl)amino]methyl}pyridine-2-carboxamide] gave an IC50 of less than 500 nM.
In the case of `CCCOCCNC(=O)c1cc(CNc2ccccc2C(=O)Nc2ccc3c(c2)OC(F)(F)O3)ccn1` [Example 114, 4-{[(2-{[(2,2-difluoro-1,3-benzodioxol-5-yl)amino]carbonyl}phenyl)amino]methyl}-N-(2-propoxyethyl)pyridine-2-carboxamide], where the note is “group: less than 500 nM”, the IC50 is less than 500 nM.
In turn, `CC(CN(C)C)NC(=O)c1cc(CNc2ccccc2C(=O)Nc2ccc3c(c2)OC(F)(F)O3)ccn1` (stereo not drawn) [Example 116, 4-{[(2-{[(2,2-difluoro-1,3-benzodioxol-5-yl)amino]carbonyl}phenyl)amino]methyl}-N-[2-(dimethylamino)-1-methylethyl]pyridine-2-carboxamide] registered an IC50 (group: between 1 and 3 μM) of 1000 to 3000 nM.
Regarding `CN1CCCC1CCNC(=O)c1cc(CNc2ccccc2C(=O)Nc2ccc3c(c2)OC(F)(F)O3)ccn1` (stereo not drawn) [Example 117, 4-{[(2-{[(2,2-difluoro-1,3-benzodioxol-5-yl)amino]carbonyl}phenyl)amino]methyl}-N-[2-(1-methylpyrrolidin-2-yl)ethyl]pyridine-2-carboxamide], the IC50 (group: less than 500 nM) is less than 500 nM.
Turning to `O=C(NC1CCN(Cc2ccccc2)C1)c1cc(CNc2ccccc2C(=O)Nc2ccc3c(c2)OC(F)(F)O3)ccn1` (stereo not drawn) [Example 118, N-(1-benzylpyrrolidin-3-yl)-4-{[(2-{[(2,2-difluoro-1,3-benzodioxol-5-yl)amino]carbonyl}phenyl)amino]methyl}pyridine-2-carboxamide], for the setting “group: between 1 and 3 μM”, the IC50 is 1000 to 3000 nM.
As for `CC1CCCCN1CCCNC(=O)c1cc(CNc2ccccc2C(=O)Nc2ccc3c(c2)OC(F)(F)O3)ccn1` (stereo not drawn) [Example 119, 4-{[(2-{[(2,2-difluoro-1,3-benzodioxol-5-yl)amino]carbonyl}phenyl)amino]methyl}-N-[3-(2-methylpiperidin-1-yl)propyl]pyridine-2-carboxamide], the IC50 (group: less than 500 nM) is less than 500 nM.
The compound `O=C(NCCc1ccccn1)c1cc(CNc2ccccc2C(=O)Nc2ccc3c(c2)OC(F)(F)O3)ccn1` [Example 120, 4-{[(2-{[(2,2-difluoro-1,3-benzodioxol-5-yl)amino]carbonyl}phenyl)amino]methyl}-N-(2-pyridin-2-ylethyl)pyridine-2-carboxamide] displayed an IC50 (group: less than 500 nM) of less than 500 nM.
As to `CN(C)CC(C)(C)CNC(=O)c1cc(CNc2ccccc2C(=O)Nc2ccc3c(c2)OC(F)(F)O3)ccn1` [Example 121, 4-{[(2-{[(2,2-difluoro-1,3-benzodioxol-5-yl)amino]carbonyl}phenyl)amino]methyl}-N-[3-(dimethylamino)-2,2-dimethylpropyl]pyridine-2-carboxamide], the IC50 (group: between 1 and 3 μM) was in the range of 1000 to 3000 nM.
Same read-out and setting: the value for `COc1ccc(CCNC(=O)c2cc(CNc3ccccc3C(=O)Nc3ccc4c(c3)OC(F)(F)O4)ccn2)cc1` [Example 122, 4-{[(2-{[(2,2-difluoro-1,3-benzodioxol-5-yl)amino]carbonyl}phenyl)amino]methyl}-N-[2-(4-methoxyphenyl)ethyl]pyridine-2-carboxamide] was 1000 to 3000 nM.
With `O=C(NCCCN1CCCC1=O)c1cc(CNc2ccccc2C(=O)Nc2ccc3c(c2)OC(F)(F)O3)ccn1` [Example 123, 4-{[(2-{[(2,2-difluoro-1,3-benzodioxol-5-yl)amino]carbonyl}phenyl)amino]methyl}-N-[3-(2-oxopyrrolodin-1-yl)propyl]pyridine-2-carboxamide], under “group: less than 500 nM”, the half-inhibitory concentration (IC50) is less than 500 nM.
Still for that read-out and setting: next, `CCCOCCCNC(=O)c1cc(CNc2ccccc2C(=O)Nc2ccc3c(c2)OC(F)(F)O3)ccn1` [Example 124, 4-{[(2-{[(2,2-difluoro-1,3-benzodioxol-5-yl)amino]carbonyl}phenyl)amino]methyl}-N-(3-propoxypropyl)pyridine-2-carboxamide]: less than 500 nM.
As for `CCOc1ccc(CCNC(=O)c2cc(CNc3ccccc3C(=O)Nc3ccc4c(c3)OC(F)(F)O4)ccn2)cc1OC` [Example 125, 4-{[(2-{[(2,2-difluoro-1,3-benzodioxol-5-yl)amino]carbonyl}phenyl)amino]methyl}-N-[2-(4-ethoxy-3-methoxyphenyl)ethyl]pyridine-2-carboxamide], the IC50 (group: between 1 and 3 μM) was 1000 to 3000 nM.
For the setting “group: between 1 and 3 μM”, `CCOc1cc(CCNC(=O)c2cc(CNc3ccccc3C(=O)Nc3ccc4c(c3)OC(F)(F)O4)ccn2)ccc1OC` [Example 126, 4-{[(2-{[(2,2-difluoro-1,3-benzodioxol-5-yl)amino]carbonyl}phenyl)amino]methyl}-N-[2-(3-ethoxy-4-methoxyphenyl)ethyl]pyridine-2-carboxamide] came in with an IC50 of 1000 to 3000 nM.
Consider `CSCC[C@@H](CO)NC(=O)c1cc(CNc2ccccc2C(=O)Nc2ccc3c(c2)OC(F)(F)O3)ccn1` [Example 127, 4-{[(2-{[(2,2-difluoro-1,3-benzodioxol-5-yl)amino]carbonyl}phenyl)amino]methyl}-N-[(1S)-1-(hydroxymethyl)-3-(methylthio)propyl]pyridine-2-carboxamide], for which the IC50 (group: between 1 and 3 μM) was in the range of 1000 to 3000 nM.
Same read-out and setting: next, `O=C(NCCc1cccs1)c1cc(CNc2ccccc2C(=O)Nc2ccc3c(c2)OC(F)(F)O3)ccn1` [Example 128, 4-{[(2-{[(2,2-difluoro-1,3-benzodioxol-5-yl)amino]carbonyl}phenyl)amino]methyl}-N-[2-(2-thienyl)ethyl]pyridine-2-carboxamide]: 1000 to 3000 nM.
With `O=C(NCCc1ccc(O)cc1)c1cc(CNc2ccccc2C(=O)Nc2ccc3c(c2)OC(F)(F)O3)ccn1` [Example 129, 4-{[(2-{[(2,2-difluoro-1,3-benzodioxol-5-yl)amino]carbonyl}phenyl)amino]methyl}-N-[2-(4-hydroxyphenyl)ethyl]pyridine-2-carboxamide], the IC50 under setting [1] was in the range of 500 to 1000 nM.
For the compound `COc1ccc(OCC(O)CNC(=O)c2cc(CNc3ccccc3C(=O)Nc3ccc4c(c3)OC(F)(F)O4)ccn2)cc1` (stereo not drawn) [Example 132, 4-{[(2-{[(2,2-difluoro-1,3-benzodioxol-5-yl)amino]carbonyl}phenyl)amino]methyl}-N-[2-hydroxy-3-(4-methoxyphenoxy)propyl]pyridine-2-carboxamide], for the setting “group: less than 500 nM”, the IC50 is less than 500 nM.
Same read-out and setting: next, `O=C(NCc1ccc(N2CCOCC2)cc1)c1cc(CNc2ccccc2C(=O)Nc2ccc3c(c2)OC(F)(F)O3)ccn1` [Example 133, 4-{[(2-{[(2,2-difluoro-1,3-benzodioxol-5-yl)amino]carbonyl}phenyl)amino]methyl}-N-(4-morpholin-4-ylbenzyl)pyridine-2-carboxamide]: less than 500 nM; `O=C(Nc1ccc2c(c1)OC(F)(F)O2)c1ccccc1NCc1ccnc(NCCO)c1` [Example 134, N-(2,2-difluoro-1,3-benzodioxol-5-yl)-2-[({2-[(2-hydroxyethyl)amino]pyridin-4-yl}methyl)amino]benzamide trifluoroacetate (salt)]: less than 500 nM.
The same measure, in the same setting: the value for `COCCNc1cc(CNc2ccccc2C(=O)Nc2ccc3c(c2)OC(F)(F)O3)ccn1` [Example 135, N-(2,2-difluoro-1,3-benzodioxol-5-yl)-2-[({2-[(2-methoxyethyl)amino]pyridin-4-yl}methyl)amino]benzamide trifluoroacetate] was less than 500 nM.

The record behind these values is US20080293696A1, “2-Aminoarylcarboxamides Useful as Cancer Chemotherapeutic Agents” (Bayer Pharmaceuticals Corporation, priority 2004, published 2008).
